Laboratory results reported in ChEMBL document CHEMBL3991601, “The target landscape of clinical kinase drugs” (Science, 2017).
The source made the active and inactive calls. For most assays here, no stated cut-off is given here; in the data, actives have a measured Kd and inactives only a lower limit.

Key:
Adenosine kinase = Adenosine kinase (Homo sapiens, UniProt P55263)
[1] = target: Tyrosine-protein kinase BTK (Homo sapiens, UniProt Q06187)
[2] = target: Cyclin-dependent kinase 1 (Homo sapiens, UniProt P06493)
[3] = target: Casein kinase II subunit alpha' (Homo sapiens, UniProt P19784)
[4] = target: Eukaryotic translation initiation factor 2-alpha kinase 1 (Homo sapiens, UniProt Q9BQI3)
[5] = target: Mitogen-activated protein kinase kinase kinase 1 (Homo sapiens, UniProt Q13233)
[6] = target: Mitogen-activated protein kinase kinase kinase 4 (Homo sapiens, UniProt Q9Y6R4)
[7] = target: Mitogen-activated protein kinase kinase kinase kinase 1 (Homo sapiens, UniProt Q92918)
[8] = target: T1, RNA cytidine acetyltransferase (Homo sapiens, UniProt Q9H0A0)
T1 sequence (Q9H0A0 whole entry): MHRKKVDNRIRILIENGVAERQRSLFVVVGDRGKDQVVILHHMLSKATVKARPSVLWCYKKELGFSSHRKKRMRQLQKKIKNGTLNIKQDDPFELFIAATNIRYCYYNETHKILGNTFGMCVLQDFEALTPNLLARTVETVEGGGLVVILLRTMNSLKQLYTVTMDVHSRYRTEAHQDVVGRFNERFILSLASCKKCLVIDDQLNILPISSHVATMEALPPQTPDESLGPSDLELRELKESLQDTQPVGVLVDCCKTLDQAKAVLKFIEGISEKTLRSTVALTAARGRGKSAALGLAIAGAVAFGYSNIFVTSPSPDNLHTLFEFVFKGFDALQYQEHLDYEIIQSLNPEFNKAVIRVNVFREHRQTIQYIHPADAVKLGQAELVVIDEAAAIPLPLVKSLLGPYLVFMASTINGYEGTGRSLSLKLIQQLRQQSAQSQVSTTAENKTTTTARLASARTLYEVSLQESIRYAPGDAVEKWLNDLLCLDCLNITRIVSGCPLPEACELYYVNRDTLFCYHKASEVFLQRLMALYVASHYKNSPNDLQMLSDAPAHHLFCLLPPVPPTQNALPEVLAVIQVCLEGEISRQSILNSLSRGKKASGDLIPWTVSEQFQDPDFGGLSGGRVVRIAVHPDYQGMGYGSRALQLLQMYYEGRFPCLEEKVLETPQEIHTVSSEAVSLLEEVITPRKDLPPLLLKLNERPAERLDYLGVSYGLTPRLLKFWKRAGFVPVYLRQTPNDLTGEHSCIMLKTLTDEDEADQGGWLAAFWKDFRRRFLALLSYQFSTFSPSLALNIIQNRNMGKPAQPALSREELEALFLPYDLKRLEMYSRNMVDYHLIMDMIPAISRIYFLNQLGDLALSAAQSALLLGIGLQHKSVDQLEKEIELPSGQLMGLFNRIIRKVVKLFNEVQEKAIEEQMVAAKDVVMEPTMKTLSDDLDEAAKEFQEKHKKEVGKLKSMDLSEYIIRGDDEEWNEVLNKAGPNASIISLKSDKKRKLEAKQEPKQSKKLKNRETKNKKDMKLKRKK

[9] = target: Platelet-derived growth factor receptor beta (Homo sapiens, UniProt P09619)
[10] = target: T2, Serine/threonine-protein kinase 3 (Homo sapiens, UniProt Q13188)
T2 sequence (Q13188 whole entry): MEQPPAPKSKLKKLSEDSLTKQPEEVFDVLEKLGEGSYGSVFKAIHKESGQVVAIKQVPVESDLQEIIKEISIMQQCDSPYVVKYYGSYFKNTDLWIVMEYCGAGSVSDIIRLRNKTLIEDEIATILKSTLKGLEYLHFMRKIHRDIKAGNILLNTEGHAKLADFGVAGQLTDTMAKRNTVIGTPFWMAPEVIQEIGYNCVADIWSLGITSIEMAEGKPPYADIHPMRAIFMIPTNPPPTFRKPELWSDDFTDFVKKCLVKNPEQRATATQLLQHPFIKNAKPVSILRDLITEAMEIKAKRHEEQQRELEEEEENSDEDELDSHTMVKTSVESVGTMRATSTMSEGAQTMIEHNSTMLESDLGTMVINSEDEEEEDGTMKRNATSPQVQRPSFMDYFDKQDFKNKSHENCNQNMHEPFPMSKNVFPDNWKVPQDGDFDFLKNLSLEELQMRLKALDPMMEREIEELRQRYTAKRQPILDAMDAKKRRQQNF

[11] = target: Tyrosine-protein kinase SYK (Homo sapiens, UniProt P43405)
[12] = target: Serine/threonine-protein kinase PAK 2 (Homo sapiens, UniProt Q13177)
[13] = target: T3, Succinate--CoA ligase [ADP-forming] subunit beta, mitochondrial (Homo sapiens, UniProt Q9P2R7)
T3 sequence (Q9P2R7 whole entry): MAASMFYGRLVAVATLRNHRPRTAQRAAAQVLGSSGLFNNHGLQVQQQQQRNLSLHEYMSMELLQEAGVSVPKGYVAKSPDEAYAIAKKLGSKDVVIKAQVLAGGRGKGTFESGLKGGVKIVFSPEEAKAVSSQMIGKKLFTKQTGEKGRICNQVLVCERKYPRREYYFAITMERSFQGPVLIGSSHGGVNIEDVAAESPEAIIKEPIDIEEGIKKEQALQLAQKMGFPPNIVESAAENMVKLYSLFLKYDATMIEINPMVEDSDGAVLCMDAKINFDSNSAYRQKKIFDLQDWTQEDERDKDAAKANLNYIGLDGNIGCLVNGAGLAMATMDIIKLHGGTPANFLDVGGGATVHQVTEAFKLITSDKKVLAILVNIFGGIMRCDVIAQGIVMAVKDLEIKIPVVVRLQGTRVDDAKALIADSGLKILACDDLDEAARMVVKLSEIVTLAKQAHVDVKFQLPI

Mitogen-activated protein kinase kinase kinase 1, sequence (Q13233 whole entry): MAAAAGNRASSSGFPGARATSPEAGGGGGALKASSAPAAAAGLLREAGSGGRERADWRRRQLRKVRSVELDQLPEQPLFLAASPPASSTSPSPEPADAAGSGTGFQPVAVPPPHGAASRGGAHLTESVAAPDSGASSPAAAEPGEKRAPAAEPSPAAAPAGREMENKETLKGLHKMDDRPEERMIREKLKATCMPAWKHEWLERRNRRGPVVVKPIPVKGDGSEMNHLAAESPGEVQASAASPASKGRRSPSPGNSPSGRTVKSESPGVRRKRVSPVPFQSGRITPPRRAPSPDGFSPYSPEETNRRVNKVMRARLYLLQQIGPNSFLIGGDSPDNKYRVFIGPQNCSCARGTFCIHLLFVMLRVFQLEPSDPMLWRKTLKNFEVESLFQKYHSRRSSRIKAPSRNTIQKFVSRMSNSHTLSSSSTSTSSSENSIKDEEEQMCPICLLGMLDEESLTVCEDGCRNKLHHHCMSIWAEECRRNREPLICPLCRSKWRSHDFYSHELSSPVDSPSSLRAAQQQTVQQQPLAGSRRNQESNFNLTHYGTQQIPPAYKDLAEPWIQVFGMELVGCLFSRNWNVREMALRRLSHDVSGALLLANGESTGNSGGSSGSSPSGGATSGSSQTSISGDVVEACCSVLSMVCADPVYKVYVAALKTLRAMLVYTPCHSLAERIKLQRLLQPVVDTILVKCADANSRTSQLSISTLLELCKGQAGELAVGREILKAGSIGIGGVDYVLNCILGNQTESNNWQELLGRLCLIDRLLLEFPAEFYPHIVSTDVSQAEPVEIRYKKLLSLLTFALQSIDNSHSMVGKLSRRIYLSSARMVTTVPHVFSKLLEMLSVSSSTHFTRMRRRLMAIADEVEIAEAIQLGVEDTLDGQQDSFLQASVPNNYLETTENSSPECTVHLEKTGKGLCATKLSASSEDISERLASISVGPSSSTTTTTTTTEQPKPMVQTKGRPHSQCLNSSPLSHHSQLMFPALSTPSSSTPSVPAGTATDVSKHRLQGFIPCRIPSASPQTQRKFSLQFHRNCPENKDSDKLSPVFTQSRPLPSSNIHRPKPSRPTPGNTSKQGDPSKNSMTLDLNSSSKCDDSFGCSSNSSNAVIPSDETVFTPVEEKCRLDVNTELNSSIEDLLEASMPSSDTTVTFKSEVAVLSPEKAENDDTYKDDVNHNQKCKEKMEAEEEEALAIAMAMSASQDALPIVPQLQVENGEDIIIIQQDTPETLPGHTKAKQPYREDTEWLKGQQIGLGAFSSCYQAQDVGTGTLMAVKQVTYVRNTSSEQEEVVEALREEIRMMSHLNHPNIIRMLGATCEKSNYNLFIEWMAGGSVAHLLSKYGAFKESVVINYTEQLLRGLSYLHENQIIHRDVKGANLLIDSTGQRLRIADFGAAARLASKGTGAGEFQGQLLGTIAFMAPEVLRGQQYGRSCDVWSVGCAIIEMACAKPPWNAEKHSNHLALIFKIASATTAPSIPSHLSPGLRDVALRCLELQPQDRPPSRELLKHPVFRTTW
Cyclin-dependent kinase 1, sequence (P06493 whole entry): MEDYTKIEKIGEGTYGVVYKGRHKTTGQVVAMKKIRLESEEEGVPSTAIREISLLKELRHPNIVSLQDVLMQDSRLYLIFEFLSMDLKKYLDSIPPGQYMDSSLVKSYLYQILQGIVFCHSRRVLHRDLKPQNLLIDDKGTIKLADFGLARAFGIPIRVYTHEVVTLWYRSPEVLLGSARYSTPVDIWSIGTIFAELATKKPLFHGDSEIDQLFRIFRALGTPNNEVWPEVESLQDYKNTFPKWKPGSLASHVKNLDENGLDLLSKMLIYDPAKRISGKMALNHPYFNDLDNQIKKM
Mitogen-activated protein kinase kinase kinase 4, sequence (Q9Y6R4 whole entry): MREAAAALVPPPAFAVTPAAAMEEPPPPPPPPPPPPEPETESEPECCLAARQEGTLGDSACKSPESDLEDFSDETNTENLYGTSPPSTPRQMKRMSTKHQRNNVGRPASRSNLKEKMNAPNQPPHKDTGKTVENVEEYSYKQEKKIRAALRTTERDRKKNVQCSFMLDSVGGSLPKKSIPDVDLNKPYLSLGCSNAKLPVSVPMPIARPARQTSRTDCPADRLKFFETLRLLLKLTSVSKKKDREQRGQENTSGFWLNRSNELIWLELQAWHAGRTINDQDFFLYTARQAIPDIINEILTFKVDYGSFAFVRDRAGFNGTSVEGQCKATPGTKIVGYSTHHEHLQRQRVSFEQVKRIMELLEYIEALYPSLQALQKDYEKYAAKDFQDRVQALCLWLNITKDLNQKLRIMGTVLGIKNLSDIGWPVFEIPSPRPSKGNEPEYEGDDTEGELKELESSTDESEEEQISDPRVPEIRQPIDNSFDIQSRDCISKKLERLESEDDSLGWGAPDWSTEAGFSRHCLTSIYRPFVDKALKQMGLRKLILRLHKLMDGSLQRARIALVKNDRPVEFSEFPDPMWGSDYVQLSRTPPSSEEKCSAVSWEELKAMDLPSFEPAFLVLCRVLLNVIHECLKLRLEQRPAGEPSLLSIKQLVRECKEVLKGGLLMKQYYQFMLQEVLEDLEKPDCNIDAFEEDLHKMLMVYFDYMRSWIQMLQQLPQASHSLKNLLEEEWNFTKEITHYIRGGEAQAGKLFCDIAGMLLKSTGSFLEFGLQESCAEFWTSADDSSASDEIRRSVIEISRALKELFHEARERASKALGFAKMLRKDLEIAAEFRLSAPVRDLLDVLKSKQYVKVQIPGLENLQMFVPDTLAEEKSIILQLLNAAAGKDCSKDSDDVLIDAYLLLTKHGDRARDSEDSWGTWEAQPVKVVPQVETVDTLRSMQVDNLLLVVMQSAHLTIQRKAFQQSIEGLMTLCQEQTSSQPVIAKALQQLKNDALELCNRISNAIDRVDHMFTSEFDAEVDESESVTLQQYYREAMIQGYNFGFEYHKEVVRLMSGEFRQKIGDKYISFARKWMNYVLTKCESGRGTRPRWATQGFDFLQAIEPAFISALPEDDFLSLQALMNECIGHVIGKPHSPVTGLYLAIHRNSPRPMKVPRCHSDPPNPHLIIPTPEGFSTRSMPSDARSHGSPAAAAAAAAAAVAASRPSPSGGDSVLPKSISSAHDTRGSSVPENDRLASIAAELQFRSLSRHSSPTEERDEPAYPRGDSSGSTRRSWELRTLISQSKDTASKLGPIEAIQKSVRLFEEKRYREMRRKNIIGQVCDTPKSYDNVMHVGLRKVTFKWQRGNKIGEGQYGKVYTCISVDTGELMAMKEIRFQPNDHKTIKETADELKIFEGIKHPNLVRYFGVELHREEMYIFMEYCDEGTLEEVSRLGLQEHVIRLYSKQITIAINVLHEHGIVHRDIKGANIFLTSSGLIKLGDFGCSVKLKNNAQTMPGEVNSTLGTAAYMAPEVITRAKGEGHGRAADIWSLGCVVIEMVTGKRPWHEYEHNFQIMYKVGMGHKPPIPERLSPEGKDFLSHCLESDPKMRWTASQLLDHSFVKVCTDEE
Platelet-derived growth factor receptor beta, sequence (P09619 whole entry): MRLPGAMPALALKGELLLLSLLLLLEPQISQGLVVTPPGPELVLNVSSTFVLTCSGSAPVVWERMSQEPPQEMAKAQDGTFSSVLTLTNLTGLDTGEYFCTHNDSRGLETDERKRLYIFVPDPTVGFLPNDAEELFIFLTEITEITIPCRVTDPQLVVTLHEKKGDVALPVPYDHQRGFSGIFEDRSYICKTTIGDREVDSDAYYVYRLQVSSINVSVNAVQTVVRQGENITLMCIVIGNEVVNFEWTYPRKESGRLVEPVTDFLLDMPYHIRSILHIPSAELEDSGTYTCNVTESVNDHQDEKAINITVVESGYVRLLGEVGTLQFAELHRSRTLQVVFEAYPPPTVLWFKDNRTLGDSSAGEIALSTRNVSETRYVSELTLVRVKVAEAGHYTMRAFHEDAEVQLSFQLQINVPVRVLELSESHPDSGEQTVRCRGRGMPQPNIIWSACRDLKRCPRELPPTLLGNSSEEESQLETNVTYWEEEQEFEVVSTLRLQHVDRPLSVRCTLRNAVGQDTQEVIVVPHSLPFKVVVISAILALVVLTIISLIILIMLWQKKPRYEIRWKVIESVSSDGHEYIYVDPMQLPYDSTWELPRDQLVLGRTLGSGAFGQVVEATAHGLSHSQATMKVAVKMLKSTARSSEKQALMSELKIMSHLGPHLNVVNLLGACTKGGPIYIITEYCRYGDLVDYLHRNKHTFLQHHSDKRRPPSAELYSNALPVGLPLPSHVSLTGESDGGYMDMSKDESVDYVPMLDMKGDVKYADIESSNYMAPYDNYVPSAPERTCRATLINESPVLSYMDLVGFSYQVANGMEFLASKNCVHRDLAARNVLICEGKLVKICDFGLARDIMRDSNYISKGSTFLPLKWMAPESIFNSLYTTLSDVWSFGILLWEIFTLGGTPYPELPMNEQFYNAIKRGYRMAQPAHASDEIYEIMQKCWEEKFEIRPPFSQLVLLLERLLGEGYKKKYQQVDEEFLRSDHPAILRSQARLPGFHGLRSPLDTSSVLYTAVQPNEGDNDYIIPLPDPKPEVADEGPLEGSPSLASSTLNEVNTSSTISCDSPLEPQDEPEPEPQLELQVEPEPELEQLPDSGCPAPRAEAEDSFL
Adenosine kinase, sequence (P55263 whole entry): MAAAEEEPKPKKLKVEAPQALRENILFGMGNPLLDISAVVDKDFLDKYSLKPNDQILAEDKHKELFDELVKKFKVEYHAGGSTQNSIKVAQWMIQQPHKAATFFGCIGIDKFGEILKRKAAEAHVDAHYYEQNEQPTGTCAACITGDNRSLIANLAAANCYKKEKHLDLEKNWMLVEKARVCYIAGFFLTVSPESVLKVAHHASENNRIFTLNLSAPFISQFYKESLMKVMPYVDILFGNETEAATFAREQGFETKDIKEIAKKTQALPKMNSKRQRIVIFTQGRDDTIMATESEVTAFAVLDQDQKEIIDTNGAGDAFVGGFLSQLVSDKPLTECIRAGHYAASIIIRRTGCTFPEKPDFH

Row | SMILES | Kd (Adenosine kinase) | Kd [1] | Kd [2] | Kd [3] | Kd [4] | Kd [5] | Kd [6] | Kd [7] | Kd [8] | Kd [9] | Kd [10] | Kd [11] | Kd [12] | Kd [13]
1 | O=C(Nc1ccc(OC(F)(F)F)cc1)c1sccc1NCc1ccnc2ccccc12 [OSI-930] | > 30 µM (inactive) | > 30 µM (inactive) | > 30 µM (inactive) | > 30 µM (inactive) | > 30 µM (inactive) | > 30 µM (inactive) | > 30 µM (inactive) | > 30 µM (inactive) | > 30 µM (inactive) | > 30 µM (inactive) | > 30 µM (inactive) | > 30 µM (inactive) |  | 
2 | CN(c1ncccc1CNc1nc(Nc2ccc3c(c2)CC(=O)N3)ncc1C(F)(F)F)S(C)(=O)=O [PF-00562271] | > 30 µM (inactive) |  | 1.51 µM (active) | 0.998 µM (active) | > 30 µM (inactive) | > 30 µM (inactive) | > 30 µM (inactive) | 3.98 µM (active) | > 30 µM (inactive) |  |  |  | > 30 µM (inactive) | > 30 µM (inactive)
3 | COc1cc2c(Oc3ccc4[nH]c(C)cc4c3F)ncnc2cc1OCCCN1CCCC1 [CEDIRANIB] | > 30 µM (inactive) |  | > 30 µM (inactive) |  |  |  |  |  | > 30 µM (inactive) |  |  |  |  | > 30 µM (inactive)
4 | CC1(C)CNc2cc(NC(=O)c3cccnc3NCc3ccncc3)ccc21 [MOTESANIB] | > 30 µM (inactive) |  | > 30 µM (inactive) |  |  |  |  |  | > 30 µM (inactive) |  |  |  |  | > 30 µM (inactive)
5 | Cc1c(NC(=O)OC[C@@H]2COCCN2)cn2ncnc(Nc3ccc4c(cnn4Cc4cccc(F)c4)c3)c12 [AC-480] | > 30 µM (inactive) | > 30 µM (inactive) | > 30 µM (inactive) | > 30 µM (inactive) | > 30 µM (inactive) | > 30 µM (inactive) | > 30 µM (inactive) | > 30 µM (inactive) | > 30 µM (inactive) | > 30 µM (inactive) | > 30 µM (inactive) | > 30 µM (inactive) |  | > 30 µM (inactive)
6 | Cc1c(Cn2c(C)nc3c(C(=O)O)cc(N4CCOCC4)cc32)cccc1C(F)(F)F [GSK-2636771] | > 30 µM (inactive) | > 30 µM (inactive) | > 30 µM (inactive) | > 30 µM (inactive) | > 30 µM (inactive) | > 30 µM (inactive) | > 30 µM (inactive) | > 30 µM (inactive) | > 30 µM (inactive) | > 30 µM (inactive) | > 30 µM (inactive) | > 30 µM (inactive) |  | > 30 µM (inactive)
7 | CN(C)C/C=C/C(=O)Nc1cc2c(Nc3ccc(F)c(Cl)c3)ncnc2cc1O[C@H]1CCOC1 [AFATINIB] | 3.49 µM (active) |  | > 30 µM (inactive) |  |  |  |  |  | > 30 µM (inactive) |  |  |  |  | 
8 | NC(=O)c1ccc(N(C(N)=O)c2c(F)cccc2F)nc1-c1ccc(F)cc1F [VX-702] | > 30 µM (inactive) | > 30 µM (inactive) | > 30 µM (inactive) | > 30 µM (inactive) | > 30 µM (inactive) | > 30 µM (inactive) | > 30 µM (inactive) | > 30 µM (inactive) | > 30 µM (inactive) | > 30 µM (inactive) | > 30 µM (inactive) | > 30 µM (inactive) |  | > 30 µM (inactive)
9 | COc1cc2ncnc(Nc3ccc(F)c(Cl)c3)c2cc1NC(=O)/C=C/CN1CCCCC1 [DACOMITINIB ANHYDROUS] | > 30 µM (inactive) | > 30 µM (inactive) | > 30 µM (inactive) | > 30 µM (inactive) | > 30 µM (inactive) | > 30 µM (inactive) | > 30 µM (inactive) | > 30 µM (inactive) | > 30 µM (inactive) | > 30 µM (inactive) | > 30 µM (inactive) | > 30 µM (inactive) |  | > 30 µM (inactive)
10 | CCc1nc(C(N)=O)c(Nc2ccc(N3CCC(N4CCN(C)CC4)CC3)c(OC)c2)nc1NC1CCOCC1 [GILTERITINIB] | > 30 µM (inactive) | > 30 µM (inactive) | > 30 µM (inactive) | 0.96 µM (active) |  | > 30 µM (inactive) | > 30 µM (inactive) |  | > 30 µM (inactive) | 0.51 µM (active) | > 30 µM (inactive) | 4.04 µM (active) |  | > 30 µM (inactive)
11 | Cn1cnc2c(F)c(Nc3ccc(Br)cc3Cl)c(C(=O)NOCCO)cc21 [SELUMETINIB] | > 30 µM (inactive) |  | > 30 µM (inactive) |  |  |  |  |  | > 30 µM (inactive) |  |  |  |  | > 30 µM (inactive)
12 | FC(F)(F)c1ccc(CNc2ccc(Cc3c[nH]c4ncc(Cl)cc34)cn2)cn1 [PEXIDARTINIB] | > 30 µM (inactive) | > 30 µM (inactive) | > 30 µM (inactive) | > 30 µM (inactive) | > 30 µM (inactive) | > 30 µM (inactive) | > 30 µM (inactive) | > 30 µM (inactive) | > 30 µM (inactive) | > 30 µM (inactive) | > 30 µM (inactive) | > 30 µM (inactive) |  | > 30 µM (inactive)
13 | COc1cc2c(N3CCN(C(=O)Nc4ccc(OC(C)C)cc4)CC3)ncnc2cc1OCCCN1CCCCC1 [TANDUTINIB] | > 30 µM (inactive) |  |  |  |  |  |  |  | > 30 µM (inactive) |  |  |  |  | 
14 | CCN(CCCOc1ccc2c(Nc3cc(CC(=O)Nc4cccc(F)c4)n[nH]3)ncnc2c1)CCOP(=O)(O)O [BARASERTIB] | > 30 µM (inactive) |  | > 30 µM (inactive) | 1.95 µM | > 30 µM (inactive) | > 30 µM (inactive) | > 30 µM (inactive) | > 30 µM (inactive) | > 30 µM (inactive) |  |  | > 30 µM (inactive) | > 30 µM (inactive) | > 30 µM (inactive)
15 | C[C@@]1(C(=O)Nc2ccc(F)nc2)CCCN1c1nc(Nc2cc(C3CC3)n[nH]2)c2cccn2n1 [BMS-754807] | > 30 µM (inactive) |  | > 30 µM (inactive) |  |  |  |  |  | > 30 µM (inactive) |  |  |  |  | > 30 µM (inactive)
16 | C[C@]1(O)C[C@@H](c2nc(-c3ccc4ccc(-c5ccccc5)nc4c3)c3c(N)nccn32)C1 [LINSITINIB] | > 30 µM (inactive) |  |  | > 30 µM (inactive) | > 30 µM (inactive) | > 30 µM (inactive) | > 30 µM (inactive) | > 30 µM (inactive) | > 30 µM (inactive) | > 30 µM (inactive) |  |  |  | > 30 µM (inactive)
